Test results reported in patent US12102637B2, “Pharmaceutical formulations for treating endometriosis, uterine fibroids, polycystic ovary syndrome or adenomyosis” (AbbVie Inc., priority 2017, dated 2024).

Tests used:
healthy women = assay: 3-menstrual cycle study in healthy women (ovulation, endometrial thickness); type: in vivo, human; settings: 150 mg QD and 200 mg BID, vs pretreatment
pKa of elagolix = type: physicochemical
[1] = target: efflux transporter P-glycoprotein (P-gp) (Homo sapiens, UniProt P08183); assay: Elagolix as inhibitor and substrate of P-gp
Experimental: Elagolix is an inhibitor of efflux transporter P-glycoprotein (P-gp) at 200 mg BID or higher, such as 300 mg BID or 400 mg QD or 600 mg QD. Co-administration with ELAGOLIX 200 mg BID may increase plasma concentration of drugs that are substrates of P-gp.
Elagolix is a substrate of CYP3A, P-gp, and organic anion transporting polypeptide (OATP)1B1. Clinically meaningful interactions are not expected when elagolix is co-administered with drugs that inhibit CYP3A or P-gp.

[2] = Pharmacokinetics in hepatic impairment; type: in vivo, human
Source text: Elagolix exposures (Cmax and AUC) are similar between women with normal hepatic function and women with mild hepatic impairment. Elagolix exposures in women with moderate and severe hepatic impairment are approximately 3-fold and 7-fold, respectively, of exposures from women with normal hepatic function.
Compared to women with normal liver function, those with moderate hepatic impairment had approximately 3-fold higher elagolix exposures and those with severe hepatic impairment had approximately 7-fold higher elagolix exposures. Because of these increased exposures and risk for bone loss: Elagolix 150 mg once daily is recommended for women with moderate hepatic impairment (Child-Pugh B) with the duration of treatment limited to 6 months. Use of elagolix 200 mg twice daily is not recommended for women with moderate hepatic impairment. Elagolix is contraindicated in women with severe hepatic impairment (Child-Pugh C).

[3] = BCS classification of Compound A; type: physicochemical
Source text: Release Profile Drugs administered via oral solid dosage forms should dissolve in vivo before systemic absorption can take place. There are number of factors which affect drug dissolution, including physicochemical properties of the drug substance. […] Incomplete dissolution may result in highly variable inter- and intra patient bioavailability. It has been determined in the present application that Compound A is a BCS class III drug. It also has been determined in the present application that the monosodium salt of Compound A has a tendency to form a gel, particularly when present at an amount greater than about 10% by weight in the absence of an appropriate anti-gelling agent, when administered orally in a solid dosage form. Thus, it is desirable to provide oral solid dosage forms that facilitate drug dissolution.

menstrual bleeding = assay: Effects on menstrual bleeding patterns (electronic daily diary; bleeding/spotting days, intensity, amenorrhea, resumption of menses); type: in vivo, human; settings: for Mean bleeding/spotting days in prior 28 days / Mean Intensity score: Baseline; for Mean Intensity score: scale 1 to 4 (1 = spotting, 4 = heavy), subjects with at least 1 day of bleeding or spotting in 28 day interval
[4] = tested on: luteinizing hormone (LH) and follicle-stimulating hormone (FSH); assay: Suppression of LH and FSH levels; type: in vivo, human; settings: begins within hours of administration, reversible upon discontinuation
Source text: (I) Elagolix is an orally administered, short-acting, selective, non-peptide small molecule GnRH receptor antagonist that blocks endogenous GnRH signaling by binding competitively to GnRH receptors in the pituitary gland. […] LH and FSH suppression begins within hours of administration and is readily reversible upon discontinuation of elagolix.

[5] = Drug interaction studies: elagolix in the presence of co-administered drug; type: in vivo, human; settings: for AUC Ratio (co-administration vs elagolix alone) / Cmax Ratio (co-administration vs elagolix alone): elagolix 150 mg single dose
Experimental: Drug interaction studies were performed with elagolix and other drugs that are likely to be co-administered and with drugs commonly used as probes for pharmacokinetic interactions.

[6] = tested on: premenopausal women with endometriosis with associated pain; assay: Studies EM-I and EM-II: dysmenorrhea scores and Numeric Rating Scale (NRS) pain; type: in vivo, human
Source text: Women in these studies also provided a daily self-assessment of their endometriosis pain using the Numeric Rating Scale (NRS), on a scale ranging from 0 (no pain) to 10 (worst pain ever).

[7] = tested on: women treated in Studies EM-1 and EM-2; assay: Suicidal ideation, suicidal behavior and mood disorders in Studies EM-1 and EM-2; type: in vivo, human
Source text: Patients with depressive symptoms should be evaluated to determine whether the risks of continued therapy outweigh the benefits. Patients with new or worsening depression, anxiety or other mood changes should be referred to a mental health professional, as appropriate. Patients with suicidal ideation and behavior should seek immediate medical attention. Benefits and risks of continuing elagolix should be revaluated if such events occur and optionally, elagolix should be stopped with worsening or serious depression, anxiety, mood changes or suicidal ideation.
In the placebo-controlled trials (Studies EM-1 and EM-2), elagolix was associated with adverse mood changes, particularly in those with a history of depression.

rats = assay: Fertility and repeat-dose studies in rats; type: in vivo, rat
Source text: Based on pharmacologic actions of elagolix in humans a reversible effect on fertility may be expected in women.

[8] = tested on: premenopausal women with HMB, uterine fibroids and adenomyosis; assay: Phase 2b trial in women with HMB and uterine fibroids, subgroup with non-dominant adenomyosis; type: in vivo, human
Experimental: Patients and Methods: […] Elagolix studied in this clinical trial comprised the sodium salt of Compound A. All subjects were evaluated with ultrasound and a subset volunteered to also be evaluated by MRI. […] Efficacy and safety were evaluated post hoc in a subgroup of women who had confirmed non-dominant adenomyosis (ultrasound/MRI) at baseline. Menstrual blood loss (MBL) was quantified from sanitary products (alkaline hematin). […] Adverse events (AEs) were recorded.

[9] = Ketoconazole 400 mg once daily, N 11
[10] = Rifampin 600 mg single dose, N 12

Chain of efflux transporter P-glycoprotein (P-gp) (P08183 whole entry): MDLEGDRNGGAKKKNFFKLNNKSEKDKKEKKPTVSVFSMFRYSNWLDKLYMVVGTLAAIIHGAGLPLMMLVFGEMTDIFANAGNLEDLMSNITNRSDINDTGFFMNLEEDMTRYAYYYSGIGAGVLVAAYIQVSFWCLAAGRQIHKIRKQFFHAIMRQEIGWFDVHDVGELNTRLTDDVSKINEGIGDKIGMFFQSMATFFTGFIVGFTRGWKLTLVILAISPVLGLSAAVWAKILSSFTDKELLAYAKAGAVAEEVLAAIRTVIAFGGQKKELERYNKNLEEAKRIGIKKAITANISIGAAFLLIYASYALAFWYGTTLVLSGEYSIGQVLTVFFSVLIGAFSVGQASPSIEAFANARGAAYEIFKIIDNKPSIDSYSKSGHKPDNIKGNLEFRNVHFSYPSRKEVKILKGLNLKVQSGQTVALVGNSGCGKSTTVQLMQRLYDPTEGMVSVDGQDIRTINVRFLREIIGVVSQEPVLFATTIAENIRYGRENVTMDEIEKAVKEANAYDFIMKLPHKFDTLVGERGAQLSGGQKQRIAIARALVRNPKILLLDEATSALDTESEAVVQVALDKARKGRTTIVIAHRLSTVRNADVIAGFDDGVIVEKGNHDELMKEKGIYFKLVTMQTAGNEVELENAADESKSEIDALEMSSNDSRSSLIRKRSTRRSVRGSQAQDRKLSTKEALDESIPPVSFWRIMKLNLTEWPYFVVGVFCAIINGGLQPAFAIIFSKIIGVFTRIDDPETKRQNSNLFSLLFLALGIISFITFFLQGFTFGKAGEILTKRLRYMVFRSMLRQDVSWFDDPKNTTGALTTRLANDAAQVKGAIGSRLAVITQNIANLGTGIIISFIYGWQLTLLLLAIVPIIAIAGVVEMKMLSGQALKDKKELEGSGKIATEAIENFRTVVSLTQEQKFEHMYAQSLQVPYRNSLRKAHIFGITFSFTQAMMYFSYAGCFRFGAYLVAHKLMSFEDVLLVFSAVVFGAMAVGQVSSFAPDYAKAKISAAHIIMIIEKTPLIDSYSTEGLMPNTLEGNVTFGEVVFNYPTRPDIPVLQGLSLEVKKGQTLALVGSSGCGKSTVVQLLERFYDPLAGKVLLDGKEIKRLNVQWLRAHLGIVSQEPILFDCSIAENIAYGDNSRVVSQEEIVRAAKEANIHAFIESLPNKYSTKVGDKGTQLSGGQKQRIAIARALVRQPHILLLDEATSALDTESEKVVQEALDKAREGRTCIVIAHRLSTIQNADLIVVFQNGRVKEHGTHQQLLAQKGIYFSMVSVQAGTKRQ

SMILES: COc1cccc(-c2c(C)n(Cc3c(F)cccc3C(F)(F)F)c(=O)n(C[C@H](NCCCC(=O)O)c3ccccc3)c2=O)c1F [Compound A, 4-((R)-2-[5-(2-fluoro-3-methoxy-phenyl)-3-(2-fluoro-6-trifluoromethyl-benzyl)-4-methyl-2,6-dioxo-3,6-dihydro-2H-pyrimidin-1-yl]-1-phenyl-ethylamino)-butyric acid]
- mean endometrial thickness (transvaginal ultrasound) (healthy women): dose dependent decrease in the mean endometrial thickness
- pKa (pKa of elagolix): ~7.89
- substrate of P-gp [1]: substrate
- inhibition of efflux transporter P-glycoprotein (P-gp) ([1]; at 200 mg BID or higher): inhibitor
- exposures (Cmax and AUC) vs normal hepatic function ([2]; mild hepatic impairment): similar
- exposures vs normal hepatic function ([2]; moderate hepatic impairment): approximately 3 fold
- exposures vs normal hepatic function ([2]; severe hepatic impairment, listed as Elagolix): ~7 fold
- exposures vs normal hepatic function ([2]; severe hepatic impairment, listed as elagolix): approximately 7 fold
- BCS class [3]: BCS class III
- Mean bleeding/spotting days in prior 28 days (menstrual bleeding; Elagolix 150 mg Once Daily): 5.3 days
- Mean Intensity score (menstrual bleeding; Elagolix 150 mg Once Daily): 2.6
- Mean bleeding/spotting days in prior 28 days (menstrual bleeding; Elagolix 200 mg Twice Daily): 5.7 days
- Mean Intensity score (menstrual bleeding; Elagolix 200 mg Twice Daily): 2.5
- incidence of amenorrhea (menstrual bleeding; first six months of treatment, 150 mg once daily): 6-17%
- incidence of amenorrhea (menstrual bleeding; first six months of treatment, 200 mg twice daily): 13-52%
- incidence of amenorrhea (menstrual bleeding; second 6 months of treatment, 150 mg once daily): 11-15%
- incidence of amenorrhea (menstrual bleeding; second 6 months of treatment, 200 mg twice daily): 46-57%
- bleeding and spotting days and bleeding intensity (menstrual bleeding; up to 12 months, subjects who reported menstrual bleeding): dose-dependent reduction in mean number of bleeding and spotting days and bleeding intensity
- LH and FSH levels [4]: dose-dependent suppression
- AUC Ratio (co-administration vs elagolix alone) [5, 9]: 2.20
- Cmax Ratio (co-administration vs elagolix alone) [5, 9]: 1.77
- AUC Ratio (co-administration vs elagolix alone) ([5]; Rifampin 600 mg once daily): 1.65
- Cmax Ratio (co-administration vs elagolix alone) ([5]; Rifampin 600 mg once daily): 2.00
- AUC Ratio (co-administration vs elagolix alone) [5, 10]: 5.58
- Cmax Ratio (co-administration vs elagolix alone) [5, 10]: 4.37
- direction of the change in AUC of elagolix ([5]; concomitant rifampin): ↑ elaolix
- Numeric Rating Scale (NRS) endometriosis pain scores ([6]; 150 mg QD and 200 mg BID, vs placebo at Month 3 and Month 6): highly statistically (p<0.001) significant reduction in NRS scores
- mean decreases from Baseline in dysmenorrhea scores ([6]; both elagolix treatment groups, Month 1 through Month 6, vs placebo): statistically significantly greater than placebo
- Completed Suicide, % ([7]; 150 mg Once Daily (N = 475)): 0.2%
- Depressed Mood, depression, depressive symptoms and or tearfulness, % ([7]; 150 mg Once Daily (N = 475)): 2.7%
- Mood altered, mood swings, % ([7]; 150 mg Once Daily (N = 475)): 5.7%
- Suicidal ideation, % ([7]; 150 mg Once Daily (N = 475)): 0.2%
- Depressed Mood, depression, depressive symptoms and or tearfulness, % ([7]; 200 mg Twice Daily (N = 477)): 6.1%
- Mood altered, mood swings, % ([7]; 200 mg Twice Daily (N = 477)): 5.2%
- Suicidal ideation, % ([7]; 200 mg Twice Daily (N = 477)): 0.2%
- incidence of depression and mood changes ([7]; vs placebo): higher incidence of depression and mood changes compared to placebo
- effect in fertility study (rats; doses 50, 150, 300 mg/kg/day): no effect
- ovarian findings in repeat-dose study (rats; doses 600, 800 mg/kg/day): involution and a decrease in corpora lutea in ovaries
- proportion of women with ≥50% reduction from baseline in HMB and <80 mL MBL in the last 28 days of treatment ([8]; Cohort 1, elagolix 300 mg BID with 0.5 mg E2/0.1 mg NETA (n=12)): 83%
- proportion of women with ≥50% reduction from baseline in HMB and <80 mL MBL in the last 28 days of treatment ([8]; Cohort 1, elagolix 300 mg BID with 1.0 mg E2/0.5 mg NETA (n=5)): 100%
- proportion of women with ≥50% reduction from baseline in HMB and <80 mL MBL in the last 28 days of treatment ([8]; Cohort 2, elagolix 600 mg QD with 0.5 mg E2/0.1 mg NETA (n=14)): 93%
- proportion of women with ≥50% reduction from baseline in HMB and <80 mL MBL in the last 28 days of treatment ([8]; Cohort 2, elagolix 600 mg QD with 1.0 mg E2/0.5 mg NETA (n=9)): 89%
- At least 1 AE, related or unrelated to study drug ([8]; elagolix-treated groups (n=22) in Cohort 1): 77%
- At least 1 AE, related or unrelated to study drug ([8]; elagolix-treated groups (n=38) in Cohort 2): 67%
